{"source": "patent US20260083714A1", "about": "“DOSING REGIMEN FOR TREATING PKU WITH A PIPERIDINE INHIBITOR OF SLC6A19 FUNCTION” (Jnana Therapeutics Inc., priority 2022, published 2026)", "key": {"SLC6A19 [1]": {"molecular_target": "T1, SLC6A19 (Homo sapiens, UniProt Q695T7)", "T1 construct": "SCL6A19 is located in the proximal tubule of the kidney and is responsible for reabsorption of amino acids back into the blood; from tissue; host or cells: Kidney proximal tubule of healthy volunteers (in vivo, endogenous)", "T1 sequence (Q695T7 1-634)": "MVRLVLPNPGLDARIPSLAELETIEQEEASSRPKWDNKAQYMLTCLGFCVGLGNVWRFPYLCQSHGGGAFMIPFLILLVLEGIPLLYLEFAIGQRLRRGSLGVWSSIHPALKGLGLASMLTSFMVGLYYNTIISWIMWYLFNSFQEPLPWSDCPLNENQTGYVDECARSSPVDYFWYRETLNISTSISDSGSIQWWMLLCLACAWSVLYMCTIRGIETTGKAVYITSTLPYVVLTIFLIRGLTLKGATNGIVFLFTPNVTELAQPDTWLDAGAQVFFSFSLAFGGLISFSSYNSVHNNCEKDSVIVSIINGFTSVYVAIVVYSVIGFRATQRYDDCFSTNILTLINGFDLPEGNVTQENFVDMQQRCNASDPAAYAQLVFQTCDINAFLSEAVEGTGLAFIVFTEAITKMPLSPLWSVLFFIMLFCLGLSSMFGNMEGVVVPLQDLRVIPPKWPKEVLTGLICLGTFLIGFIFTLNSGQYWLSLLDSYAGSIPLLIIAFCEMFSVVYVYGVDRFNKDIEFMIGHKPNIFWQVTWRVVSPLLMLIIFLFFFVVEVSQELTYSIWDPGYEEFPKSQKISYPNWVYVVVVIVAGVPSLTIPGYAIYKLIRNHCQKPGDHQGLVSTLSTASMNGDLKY", "T1 sequence (Q9HBJ8 15-222 partner)": "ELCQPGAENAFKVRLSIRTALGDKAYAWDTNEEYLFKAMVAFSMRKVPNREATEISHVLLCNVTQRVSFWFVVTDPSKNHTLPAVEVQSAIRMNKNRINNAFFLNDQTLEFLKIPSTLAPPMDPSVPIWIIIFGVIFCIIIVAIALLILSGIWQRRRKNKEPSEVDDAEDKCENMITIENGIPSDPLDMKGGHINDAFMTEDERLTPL", "assay": "Amino acid excretion over 24 h after a single dose of suspension in healthy volunteers", "assay_type": "in vivo", "procedure": "FIG. 1 is a graph of the pharmacodynamic effect of Compound 1 in healthy volunteers showing changes in total phenylalanine or overall SLC6A19 amino acid substrates (Hartnup amino acids) excretion over 24 hours following administration of a single dose of the compound (10-170 mg) in the form of a suspension.\nA suspension formulation of varying doses of Compound 1 (10-170 mg) was administered to healthy volunteers. Changes in amino acid excretion over 24 h following a single dose were measured (FIG. 1). Up to a 14-fold increase in total Phe excretion (from 10 mg to 142 mg) and a 16-fold increase in Hartnup AA excretion (from 0.29 g to 4.8 g) were observed over 24 hr after dosing (Tables 13A and 13B)."}, "SLC6A19 [2]": {"molecular_target": "T1, SLC6A19", "assay": "24 h excretion of phenylalanine and Hartnup amino acids at Day 1, 7 and 14 of suspension administration in healthy volunteers", "assay_type": "in vivo", "settings": "for Hartnup Amino Acids excretion over 24 hours, Mean / Phenylalanine excretion over 24 hours, Mean: in mg", "procedure": "FIG. 3A is a graph of the pharmacodynamic effect of Compound 1 over time in healthy volunteers by measuring changes in total overall SLC6A19 amino acid substrates (Hartnup amino acids) over 14 days of administration of a suspension of the compound at three different doses (25 or 75 mg twice daily [BID] or 150 mg once daily [QD]).\nFIG. 3B is a graph of the pharmacodynamic effect of Compound 1 over time in healthy volunteers by measuring changes in total 24 hour phenylalanine over 14 days of administration of a suspension of the compound at three different doses (25 or 75 mg twice daily [BID] or 150 mg once daily [QD]).\nA suspension formulation of varying doses of Compound 1 (25 or 75 mg twice daily [BID] or 150 mg once daily [QD]) was administered to healthy volunteers. Changes in excretion of phenylalanine or overall SLC6A19 amino acid substrates (Hartnup amino acids) over 24 hours were measured at Day 1, 7 and 14 (FIGS. 3A and 3B). Urinary excretion of Hartnup amino acids over 24 hours increased from 0.4 g w/ PBO to 4.9 g w/ the compound 75 mg BID (13-fold increase) (Table 15A)."}, "[3]": {"settings": "single dose suspension, highest value of 10-170 mg"}}}
{"smiles": "NC(=O)N1CCC[C@@H](N(C(=O)NCc2ccc(OC(F)(F)F)cc2F)C2CC2)C1", "note": "[Cpd 1, (R)-3-(1-cyclopropyl-3-(2-fluoro-4-(trifluoromethoxy)benzyl)ureido) piperidine-1-carboxamide]", "values": [{"measurement": "Excretion amounts over 24 h, Hartnup Amino Acids, Mean", "setting": "SLC6A19 [1]; single dose 10 mg suspension", "value": 712.45, "unit": "mg"}, {"measurement": "Excretion amounts over 24 h, Phenylalanine, Mean", "setting": "SLC6A19 [1]; single dose 10 mg suspension", "value": 12.50, "unit": "mg"}, {"measurement": "Excretion amounts over 24 h, Hartnup Amino Acids, Mean", "setting": "SLC6A19 [1]; single dose 25 mg suspension", "value": 1213.02, "unit": "mg"}, {"measurement": "Excretion amounts over 24 h, Phenylalanine, Mean", "setting": "SLC6A19 [1]; single dose 25 mg suspension", "value": 21.02, "unit": "mg"}, {"measurement": "Excretion amounts over 24 h, Hartnup Amino Acids, Mean", "setting": "SLC6A19 [1]; single dose 50 mg suspension", "value": 2560.22, "unit": "mg"}, {"measurement": "Excretion amounts over 24 h, Phenylalanine, Mean", "setting": "SLC6A19 [1]; single dose 50 mg suspension", "value": 51.53, "unit": "mg"}, {"measurement": "Excretion amounts over 24 h, Hartnup Amino Acids, Mean", "setting": "SLC6A19 [1]; single dose 100 mg suspension", "value": 3281.75, "unit": "mg"}, {"measurement": "Excretion amounts over 24 h, Phenylalanine, Mean", "setting": "SLC6A19 [1]; single dose 100 mg suspension", "value": 77.84, "unit": "mg"}, {"measurement": "Excretion amounts over 24 h, Hartnup Amino Acids, Mean", "setting": "SLC6A19 [1]; single dose 170 mg suspension", "value": 4823.71, "unit": "mg"}, {"measurement": "Excretion amounts over 24 h, Phenylalanine, Mean", "setting": "SLC6A19 [1]; single dose 170 mg suspension", "value": 141.61, "unit": "mg"}, {"measurement": "increase in total Phe excretion over 24 hr after dosing", "setting": "SLC6A19 [1]; single dose 10-170 mg suspension, versus 10 mg baseline", "value": "≤ 14", "unit": "fold"}, {"measurement": "increase in Hartnup AA excretion over 24 hr after dosing", "setting": "SLC6A19 [1]; single dose 10-170 mg suspension, versus 0.29 g baseline", "value": "≤ 16", "unit": "fold"}, {"measurement": "Hartnup AA excretion over 24 hr after dosing", "setting": "SLC6A19 [1]; [3]", "value": 4.8, "unit": "g"}, {"measurement": "total Phe excretion over 24 hr after dosing", "setting": "SLC6A19 [1]; [3]", "value": 142, "unit": "mg"}, {"measurement": "Hartnup Amino Acids excretion over 24 hours, Mean", "setting": "SLC6A19 [2]; 25 mg BID suspension, Day 1", "value": 2123.44}, {"measurement": "Phenylalanine excretion over 24 hours, Mean", "setting": "SLC6A19 [2]; 25 mg BID suspension, Day 1", "value": 37.38}, {"measurement": "Hartnup Amino Acids excretion over 24 hours, Mean", "setting": "SLC6A19 [2]; 25 mg BID suspension, Day 7", "value": 1835.21}, {"measurement": "Phenylalanine excretion over 24 hours, Mean", "setting": "SLC6A19 [2]; 25 mg BID suspension, Day 7", "value": 35.22}, {"measurement": "Hartnup Amino Acids excretion over 24 hours, Mean", "setting": "SLC6A19 [2]; 25 mg BID suspension, Day 14", "value": 1427.77}, {"measurement": "Phenylalanine excretion over 24 hours, Mean", "setting": "SLC6A19 [2]; 25 mg BID suspension, Day 14", "value": 19.65}, {"measurement": "increase of urinary excretion of Hartnup amino acids over 24 hours", "setting": "SLC6A19 [2]; 75 mg BID suspension versus PBO (0.4 g)", "value": 13, "unit": "fold"}, {"measurement": "Hartnup Amino Acids excretion over 24 hours, Mean", "setting": "SLC6A19 [2]; 75 mg BID suspension, Day 1", "value": 4472.55}, {"measurement": "Phenylalanine excretion over 24 hours, Mean", "setting": "SLC6A19 [2]; 75 mg BID suspension, Day 1", "value": 105.25}, {"measurement": "Hartnup Amino Acids excretion over 24 hours, Mean", "setting": "SLC6A19 [2]; 75 mg BID suspension, Day 7", "value": 4398.31}, {"measurement": "Phenylalanine excretion over 24 hours, Mean", "setting": "SLC6A19 [2]; 75 mg BID suspension, Day 7", "value": 70.98}, {"measurement": "Hartnup Amino Acids excretion over 24 hours, Mean", "setting": "SLC6A19 [2]; 75 mg BID suspension, Day 14", "value": 4922.75}, {"measurement": "Phenylalanine excretion over 24 hours, Mean", "setting": "SLC6A19 [2]; 75 mg BID suspension, Day 14", "value": 88.64}, {"measurement": "Urinary excretion of Hartnup amino acids over 24 hours", "setting": "SLC6A19 [2]; 75 mg BID suspension, healthy volunteers", "value": 4.9, "unit": "g"}, {"measurement": "Hartnup Amino Acids excretion over 24 hours, Mean", "setting": "SLC6A19 [2]; 150 mg QD suspension, Day 1", "value": 3861.43}, {"measurement": "Phenylalanine excretion over 24 hours, Mean", "setting": "SLC6A19 [2]; 150 mg QD suspension, Day 1", "value": 106.76}, {"measurement": "Hartnup Amino Acids excretion over 24 hours, Mean", "setting": "SLC6A19 [2]; 150 mg QD suspension, Day 7", "value": 6785.54}, {"measurement": "Phenylalanine excretion over 24 hours, Mean", "setting": "SLC6A19 [2]; 150 mg QD suspension, Day 7", "value": 166.71}, {"measurement": "Hartnup Amino Acids excretion over 24 hours, Mean", "setting": "SLC6A19 [2]; 150 mg QD suspension, Day 14", "value": 3737.47}, {"measurement": "Phenylalanine excretion over 24 hours, Mean", "setting": "SLC6A19 [2]; 150 mg QD suspension, Day 14", "value": 72.43}]}
